Laboratory results published in the Kinase Knowledgebase extract (Sharma et al. 2016).

Tests used:
MAPK14 = MAPK14 (UniProt Q16539); test: Inhibition of MAPK14 Kinase Activity
MAPK14 (human) = MAPK14 (human) (UniProt Q16539); test: Inhibition of LPS-Stimulated TNF-alpha Production in Human Whole Blood
Sequence of MAPK14 (human) (Q16539 whole entry, looked up): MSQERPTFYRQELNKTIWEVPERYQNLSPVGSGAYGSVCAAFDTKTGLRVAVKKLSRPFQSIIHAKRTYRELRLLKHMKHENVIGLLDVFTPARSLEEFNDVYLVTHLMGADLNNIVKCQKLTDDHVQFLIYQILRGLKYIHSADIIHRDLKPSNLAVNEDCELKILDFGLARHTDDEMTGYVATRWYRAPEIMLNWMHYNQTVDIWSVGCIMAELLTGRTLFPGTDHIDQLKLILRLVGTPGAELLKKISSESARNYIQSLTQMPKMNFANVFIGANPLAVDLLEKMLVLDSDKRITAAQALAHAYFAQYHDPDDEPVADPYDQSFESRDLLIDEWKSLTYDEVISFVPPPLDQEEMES

Sequence of MAPK14 (Q16539 whole entry, looked up): as above

| Compound | IC50 (MAPK14 (human)) [µM] | IC50 (MAPK14) [µM] |
| --- | --- | --- |
| Cc1ccc(NC(=O)c2ccnc(N3CCOCC3)c2)cc1Nc1ccnc(Cl)n1 | – | 0.019 |
| CCCN1CCC(Oc2nccc(Nc3cc(NC(=O)c4cccc(N5CCOCC5)c4)ccc3C)n2)CC1 | – | 0.049 |
| Cc1ccc(NC(=O)c2ccnc(N3CCOCC3)c2)cc1Nc1ccnc(OCC2CCCN(C)C2)n1 (stereo not given) | – | 0.033 |
| CSc1nccc(Nc2cc(NC(=O)c3cc(F)cc(N4CCOCC4)c3)ccc2C)n1 | – | 0.014 |
| COc1cc2ncnc(Nc3cccc(NC(=O)c4ccccc4)c3)c2cc1OC | > 50 | – |
| Cc1ccc(NC(=O)c2ccnc(N3CCOCC3)c2)cc1Nc1ccnc(OCCCN(C)C)n1 | – | 0.037 |
| Cc1ccc(NC(=O)c2ccnc(N3CCOCC3)c2)cc1Nc1ccnc(NCCCN2CCCC2)n1 | – | 0.058 |
| COc1cc2ncnc(Nc3cc(NC(=O)c4cccc(N5CCOCC5)c4)ccc3C)c2cc1OCCN1CCCC1 | – | 0.039 |
| COc1cc2ncnc(Nc3cccc(Cl)c3)c2cc1OC | > 50 | – |
| Cc1ccc(NC(=O)c2ccnc(N3CCOCC3)c2)cc1Nc1cc(Cl)ncn1 | > 50 | – |
| CCCN1CCC(Oc2nccc(Nc3cc(NC(=O)c4ccnc(N5CCOCC5)c4)ccc3C)n2)CC1 | – | 0.055 |
| COc1cc2ncnc(Nc3cc(NC(=O)c4ccccc4)ccc3C)c2cc1OC | – | 0.078 |
| Cc1ccc(NC(=O)c2ccnc(N3CCOCC3)c2)cc1Nc1ccnc(OCC(C)(C)CN(C)C)n1 | – | 0.079 |
| Cc1ccc(NC(=O)c2ccnc(N3CCOCC3)c2)cc1Nc1ccnc(OC2CCN(C)CC2)n1 | – | 0.045 |
| Cc1ccc(NC(=O)c2ccnc(N3CCOCC3)c2)cc1Nc1ccnc(NCCCN2CCOCC2)n1 | > 50 | 0.098 |
| COc1cc2ncnc(Nc3cc(NC(=O)c4ccccc4)c(F)cc3F)c2cc1OC | > 50 | 0.054 |
| Cc1ccc(NC(=O)c2ccnc(N3CCOCC3)c2)cc1Nc1cc(NCCCN2CCCC2)ncn1 | > 50 | – |
| COc1cc2ncnc(Nc3ccc(Cl)c(NC(=O)c4cccc(N(C)C)c4)c3)c2cc1OC | > 50 | – |
| COc1cc2ncnc(Nc3cc(NC(=O)c4cccc(N5CCOCC5)c4)ccc3C)c2cc1OCCN(C)C | 6.9 | 0.035 |
| COc1cc2ncnc(Nc3cc(NC(=O)c4ccccc4)c(Cl)cc3F)c2cc1OC | > 50 | – |
| COc1cc2ncnc(Nc3cccc(NC(=O)c4cccc(N(C)C)c4)c3)c2cc1OC | > 50 | – |

The next lines start with results.

| IC50 (MAPK14 (human)) [µM] | Compound | IC50 (MAPK14) [µM] |
| --- | --- | --- |
| 4.6 | COc1cc2ncnc(Nc3cc(NC(=O)c4cccc(N5CCOCC5)c4)ccc3C)c2cc1OCCN1CCCCC1 | 0.056 |
| > 50 | COc1cc2ncnc(Nc3ccc(Cl)c(NC(=O)c4ccccc4)c3)c2cc1OC | – |
| > 50 | COc1cc2ncnc(Nc3cc(NC(=O)c4cccc(N(C)C)c4)ccc3Cl)c2cc1OC | 0.047 |
| 7.8 | COc1cc2ncnc(Nc3cc(NC(=O)c4cccc(N5CCOCC5)c4)ccc3C)c2cc1OCCN1CCOCC1 | 0.024 |
| 3.5 | COc1cc2ncnc(Nc3cc(NC(=O)c4cccc(N5CCOCC5)c4)ccc3C)c2cc1OCCN(C(C)C)C(C)C | 0.052 |
| > 50 | COc1cc2ncnc(Nc3cc(NC(=O)c4ccccc4)ccc3Cl)c2cc1OC | 0.088 |
| > 50 | COc1cc2ncnc(Nc3cccc(NC(=O)c4ccccc4)c3F)c2cc1OC | – |
| > 50 | Cc1ccc(NC(=O)c2ccnc(N3CCOCC3)c2)cc1Nc1cc(NCCCN2CCCN(C)CC2)ncn1 | 1.22 |
| > 50 | C=CCN(C)c1nccc(Nc2cc(NC(=O)c3ccnc(N4CCOCC4)c3)ccc2C)n1 | – |
| > 50 | COc1cc2ncnc(Nc3ccc(C)c(NC(=O)c4ccccc4)c3)c2cc1OC | – |
